Reference: patent publication US7332605B2, “Process for the synthesis of CXCR4 antagonist” (AnorMED, Inc., priority 2004, dated 2008)
In brackets after ≈: the same amount, converted by molar mass. Read-outs that look alike come from different tables or passages of the source.

Legend:
[1] = tested on: HIV, X4 (T-tropic) virus; conditions: in humans; cited from earlier work
[2] = Solubility of Formula I compound in aqueous media; assay type: physicochemical; conditions: aqueous media at a pH at or below 6.0
Description: The Formula I compound in freebase form, in a mixture of dichloromethane and another solvent can be washed with an aqueous base such as 0.5N sodium hydroxide to remove traces of hydrazine. The Formula I compound can then be extracted into a dilute aqueous acid such as 1N hydrochlororic acid. […] If the pH of the aqueous solution is below 5, it can then be adjusted to 5-7, with a preferred pH being 6.0 for the removal of impurities. Non-polar organic impurities will remain in the organic layer. A number of solvents can be used, if desired, for further extraction of non-polar organic impurities including ethyl acetate, methyl t-butyl ether, tetrahydrofuran, dichloromethane and chloroform.

[3] = Solubility of compound I in organic crystallization solvents; assay type: physicochemical; conditions: organic solvent or mixture
Protocol: A crystallization solvent (solvent B) is then added which can include, but is not limited to the following, or mixtures of the following: tetrahydrofuran, ethyl acetate, cumene, isopropyl acetate, n-propyl acetate, dichloromethane, ethanol, isopropanol, methanol, isopropyl ether, diethyl ether and t-butyl methyl ether. A preferred solvent is isopropyl acetate. A sufficient volume of solvent B is added to typically reach a complete solvation of compound I at an elevated temperature. The elevated temperature will depend on the nature of the solvent, with a reflux condition being the highest temperature possible.
The crystalline compound I may also be isolated from a number of different solvent systems. Compound I is soluble at >600 mg/mL in 55° C. tetrahydrofuran, and can be recovered as crystalline material by cooling the solution. Similarly, compound I can be isolated as crystalline material from a hot solution of cumene. Compound I is very soluble in dichloromethane (>700 mg/mL), but can be precipitated as a crystalline material from the solution through the addition of diethyl ether. Ethyl acetate is an effective solvent for crystallization, with solubilities of compound I of ca. 150 mg/mL at 60° C. being achievable.

| SMILES | effect on HIV viral load and X4 (T-tropic) virus levels [1] | solubility in aqueous media [2] | solubility ([3]; 60 °C, isopropyl acetate at 60-65° C., read-out: complete solubility in isopropyl acetate) | solubility ([3]; dichloromethane, read-out: solubility in dichloromethane) | solubility ([3]; 55° C. tetrahydrofuran, read-out: solubility in tetrahydrofuran) | solubility ([3]; ethyl acetate at 60° C., read-out: solubility in ethyl acetate) |
| --- | --- | --- | --- | --- | --- | --- |
| c1cc(CN2CCCNCCNCCCNCC2)ccc1CN1CCCNCCNCCCNCC1 [AMD3100] | reduce HIV viral load and X4 (T-tropic) virus levels |  |  |  |  |  |
| NCCCCN(Cc1nc2ccccc2[nH]1)C1CCCc2cccnc21 (stereo not drawn) [Compound I, N′-(1H-benzimidazol-2-ylmethyl)-N′-(5,6,7,8-tetrahydro-quinolin-8-yl)-butane-1,4-diamine] |  | readily soluble | ~125 mg/mL (≈ 358 mM) | > 700 mg/mL | > 600 mg/mL | ~150 mg/mL (≈ 429 mM) |
